From paper PMC6222624, “Identification of Alkaloids from Corydalis yanhusuo W. T. Wang as Dopamine D1 Receptor Antagonists by Using CRE-Luciferase Reporter Gene Assay” (Molecules : A Journal of Synthetic Chemistry and Natural …, 2018)
Read-outs that look alike come from different tables or passages of the source.

Experiments:
[1] = biological target: T1, dopamine D1 receptor (Homo sapiens, UniProt P21728); experiment: CRE-luciferase reporter gene assay in HEK-D1/CRE/Luc2P cells; type: cell-based; conditions: for Emax / antagonist profile in luciferase reporter gene assay: dopamine 2 nM; for Emax: read-out: % Maximal Inhibition Mean ± SD (N = 3), Luciferase; for inhibition at 12.5 µM: single screening concentration 12.5 μM, read-out: inhibition in single-concentration screening (activity threshold); for antagonist profile in luciferase reporter gene assay: concentration-response, Figure 4A / Figure S3
T1 construct: Dopamine D1 receptor gene cloned in pcDNA 3.1 was kindly provided by Dr. Olivier Civelli; expressed in transfected cells
Excerpt: The cDNA plasmids of dopamine D1 receptor and CRE/Luci were stably co-transfected into human embryonic kidney-293 cells (HEK293) cells (HEK-D1/CRE/Luc2P). Activation of D1 receptors leads to the elevation of cAMP and activates the cAMP response element (CRE) and therefore induces the expression of the reporter gene luciferase. We used the natural ligand dopamine as a positive control to select the cell colony and to optimize and characterize the HEK-D1/CRE/Luc2P cell system.
(§1) The pGL4.29 (CRE/luc2P//Hygro) luciferase reporter gene was stably co-transfected with dopamine D1 receptor plasmid or was stably transfected individually in HEK293 cells. Transfection was carried out with lipofectamine 2000 reagent using the protocol provided by Promega. Stable cells expressing CRE-Luciferase and D1 receptor were selected in the presence of 700 μg/mL G418 and 200 μg/mL hygromycin for 10–14 days. Stable cells expressing CRE-Luciferase were singly selected in the presence of 200 μg/mL hygromycin. The obtained stable cells were then cultured with 350 μg/mL G418 and 100 μg/mL hygromycin or only 100 μg/mL hygromycin to maintain the selective growth.
(§2) The examination of CRE-luciferase activity was performed by a modification of methods as described previously. HEK293 stable cells were seeded in 96-well plates at a density of 1.5 × 10^4 cells per well. After cells became adherent, they were […] in serum-starved DMEM for different hours to explore the most suitable starving time. Cells were then pretreated with compounds for 1 h prior to dopamine stimulation. Afterwards, the cells were lysed with luciferase lysis buffer and the luminescence of the firefly luciferase was measured with the FlexStation 3 (Molecular Devices, Sunnyvale, CA, USA).
(§3) All statistical calculations were performed using GraphPad Prism 5.0 (GraphPad, Avenida, CA, USA). Data from each dose-response curve were normalized to the maximal stimulation by dopamine. At least three independent experiments were performed.

[2] = biological target: T2, human D1 receptors (Homo sapiens, UniProt P21728); experiment: Fluorescent Ca2+ mobilization assay (FLIPR) in HEK 293T cells expressing D1 receptors and Gα15; type: cell-based; conditions: for antagonist profile in FLIPR assay: concentration-response, Figure 4B; for antagonist profile in FLIPR assay / % Maximal Inhibition Mean ± SD (N = 3), FLIPR: dopamine 500 nM
T2 construct: The cDNA plasmids of D1-like receptors were stably transfected into HEK 293T cells; expressed in transfected cells
Protocol: We used a fluorescent Ca^2+ mobilization assay to further evaluate the hit compounds obtained from the luciferase reporter gene assay screens. […] With the coexpression of Gα15 protein, D1 receptors can be redirected to mediate intracellular calcium mobilization upon stimulation. Calcium levels were monitored using fluorometric imaging plate reader (FLIPR). The assay can also distinguish potential antagonists from agonists.
Fluorescent Ca^2+ mobilization assay was performed using Flu-4 AM reagent as reported earlier.
as §3

[3] = test system: HEK/CRE/Luc2P cells; experiment: Specificity control: forskolin-stimulated CRE-luciferase response in HEK/CRE/Luc2P negative control cells; type: cell-based, human; conditions: for decrease of forskolin-stimulated response (cAMP levels): forskolin 1 μM, high doses of compound, Figure S2
Protocol: HEK293 cells stably expressing cDNA plasmid of CRE/Luciferase (HEK/CRE/Luc2P) were established as the negative control cells to test the specificity to the D1 receptor for the compounds.
as §1, §2

[4] = inhibition of dopamine (2 nM) response, HEK-D1/CRE/Luc2P cells, IC50 based on the degree of maximal inhibition, read-out: IC50 (μM) with 95% Confidence Intervals, Luciferase
[5] = inhibition of dopamine (500 nM) Ca2+ mobilization, HEK-D1/Gα15 cells, IC50 based on the degree of maximal inhibition, read-out: IC50 (μM) with 95% Confidence Intervals, FLIPR

T1 sequence (P21728 whole entry): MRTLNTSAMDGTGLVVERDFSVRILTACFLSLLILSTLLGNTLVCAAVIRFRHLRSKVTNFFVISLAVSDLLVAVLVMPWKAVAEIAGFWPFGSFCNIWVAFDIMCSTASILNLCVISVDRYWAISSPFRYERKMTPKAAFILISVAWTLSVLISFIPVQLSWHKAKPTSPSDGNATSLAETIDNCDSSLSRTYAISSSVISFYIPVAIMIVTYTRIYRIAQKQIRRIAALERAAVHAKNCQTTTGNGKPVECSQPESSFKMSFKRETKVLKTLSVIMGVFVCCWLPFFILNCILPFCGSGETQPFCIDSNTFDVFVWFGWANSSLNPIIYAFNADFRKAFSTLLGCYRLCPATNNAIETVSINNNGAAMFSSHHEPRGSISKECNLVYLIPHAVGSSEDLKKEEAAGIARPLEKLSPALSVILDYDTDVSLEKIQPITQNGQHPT
T2 sequence (P21728 whole entry): as above

| Compound | Emax ([1]; HEK-D1/CRE/Luc2P cells) [%] | IC50 [1, 4] [µM] | inhibition at 12.5 µM [1] [%] | % Maximal Inhibition Mean ± SD (N = 3), FLIPR ([2]; HEK-D1/Gα15 cells) [%] | IC50 [2, 5] [µM] | antagonist profile in luciferase reporter gene assay [1] | antagonist profile in FLIPR assay [2] | IC50 [1] [µM] | decrease of forskolin-stimulated response (cAMP levels) [3] [%] | EC50 ([3]; Homo sapiens, Figure S1, read-out: EC50 for increasing intracellular cAMP (CRE-luciferase)) [nM] | IC50 [2] [µM] |
| --- | --- | --- | --- | --- | --- | --- | --- | --- | --- | --- | --- |
| COc1cc2c(cc1OC)-c1cc3ccc(OC)c(OC)c3c[n+]1CC2 [Compound 8, Palmatine] | 93.86 ± 0.437 |  | ≥ 50 |  |  |  | weak inhibitory effects | 7.08 | 25 |  |  |
| COc1cc2c(cc1OC)[C@@H]1Cc3ccc(OC)c(OC)c3CN1CC2 [Compound 2, Tetrahydropalmatine] | 72.5 ± 4 | 0.644 | ≥ 50 | 92.64 ± 1.7945 | 2.24 | partial antagonist effects | concentration-dependent antagonist responses |  |  |  |  |
| COc1cc2c(cc1OC)[C@H]1[C@@H](C)c3ccc(OC)c(OC)c3CN1CC2 [Compound 4, Corydaline] | 83.5 ± 1.45 | 2.46 | ≥ 50 | 90.32 ± 1.9817 | 3.36 |  | concentration-dependent antagonist responses |  |  |  |  |
| C=C[C@@]1(C)CC(=O)[C@]2(O)[C@@]3(C)[C@@H](O)CCC(C)(C)[C@@H]3[C@H](O)[C@H](OC(C)=O)[C@@]2(C)O1 [Forskolin, reference compound] |  |  |  |  |  |  |  |  |  | 1200 |  |
| COc1cc2c(cc1O)-c1cc3ccc(OC)c(OC)c3c[n+]1CC2 [Compound 9, Columbamine] | 97.5 ± 0.218 |  | ≥ 50 | 86.43 ± 0.7188 |  |  | concentration-dependent antagonist responses | 1.21 |  |  | 3.4 |
| COc1cc2c(cc1OC)-c1c(C)c3ccc(O)c(OC)c3c[n+]1CC2 [Compound 5, 13-methyldehydrocorydalmine] | 86 ± 1.76 | 10.3 | ≥ 50 | 77.04 ± 6.6410 | 3.08 |  | concentration-dependent antagonist responses |  | 25 |  |  |

Further lines, with some results ahead:

| Emax ([1]; HEK-D1/CRE/Luc2P cells) [%] | IC50 [1, 4] [µM] | inhibition at 12.5 µM [1] [%] | % Maximal Inhibition Mean ± SD (N = 3), FLIPR ([2]; HEK-D1/Gα15 cells) [%] | IC50 [2, 5] [µM] | antagonist profile in luciferase reporter gene assay [1] | Compound | antagonist profile in FLIPR assay [2] | IC50 [1] [µM] | decrease of forskolin-stimulated response (cAMP levels) [3] [%] | EC50 ([3]; Homo sapiens, Figure S1, read-out: EC50 for increasing intracellular cAMP (CRE-luciferase)) [nM] | IC50 [2] [µM] |
| --- | --- | --- | --- | --- | --- | --- | --- | --- | --- | --- | --- |
| 97.52 ± 0.626 | 0.621 | ≥ 50 | 94.38 ± 0.1939 | 0.612 |  | COc1cc2c(cc1O)CC[n+]1cc3c(OC)c(OC)ccc3c(C)c1-2 [Compound 6, Dehydrocorybulbine] | concentration-dependent antagonist responses |  |  |  |  |
| 78.2 ± 1.78 | 13.4 | ≥ 50 |  |  | partial antagonist effects | COc1cc2c(cc1O)C1Cc3ccc(OC)c(OC)c3C[N+]1(C)CC2 (stereo not shown) [Compound 10, N-methyltetrahydrocolumbamine] | weak inhibitory effects |  |  |  |  |
| 98.23 ± 0.33 | 1.29 | ≥ 50 | 90.61 ± 0.6541 | 1.53 |  | COc1cc2c(cc1OC)-c1c(C)c3ccc(OC)c(OC)c3c[n+]1CC2 [Compound 7, Dehydrocorydaline] | concentration-dependent antagonist responses |  |  |  |  |
